Reference: patent publication US9982008B2, “Preparation and uses of obeticholic acid” (Intercept Pharmaceuticals, Inc., priority 2012, dated 2018)

Legend:
[1] = rat, in vivo, po, 20 mg/kg
Procedure: The study described below was carried out to evaluate the plasma kinetics after a single oral administration and the efficiency of the intestinal absorption and the pharmacokinetics of solid non-crystalline and crystalline forms of obeticholic acid. The profiles of obeticholic acid plasma concentration vs time, the tmax, Cmax and AUC after administration of obeticholic acid Form 1 (non-crystalline) or Form F were compared (see FIGS. 37-38)
Obeticholic acid Form 1 (non-crystalline) and Form F were administered to rats and in each animal blood was collected at different period of times for at least 3 hours. Six animals were studied for each form of obeticholic acid.
The formulation was prepared as a suspension in water at pH 4. The study model is adult male Sprague Dawley rats about 225 to about 250 g (Harlan Laboratories). Six animals were used per dosage route. The dosage is PO 20 mg/kg/5 mL. The animals were fasted overnight before treatment with the formulation of obeticholic acid. Oral administration was performed by gastric gavage.
On day one animals were be fitted with a cannula implanted in the left jugular vein (SOP VIVO/SAF6), anaesthesia was obtained by Isoflurane. The experiment was started after one day of recovery from surgery. About 500 μL of blood (250 μL of plasma) was taken via cannula in a heparinised syringe (Na Heparin) and collected immediately in microtubes in an ice/water bath. Within 1 hour, samples were centrifuged at 10000×g for 5 minutes at 4° C. Plasma was immediately transferred in microtubes and stored at −20° C. Samples of blood were collected 30 minutes, 1 hour, 1.3 hour, 2 hours, and 3 hour post-dose. Plasma samples were analyzed using the HPLC-ES/MS/MS quantitative method. Pharmacokinetics study was preformed using non-compartmental methods.

[2] = 1 week
Procedure: Briefly, the solid was suspended in water at a low pH (HCl 0.1 mol/L) and left to equilibrate at 25° C. for one week under slightly mixing. The saturate solution was filtered and the concentration of the compound in solution measured by HPLC-ES-MS/MS.

[3] = Gravimetric Vapor Sorption (GVS); type: physicochemical
Procedure: (§1) Sorption isotherms were obtained using a SMS DVS Intrinsic moisture sorption analyzer, controlled by DVS Intrinsic Control software v 1.0.0.30. The sample temperature was maintained at 25° C. by the instrument controls. The humidity was controlled by mixing streams of dry and wet nitrogen, with a total flow rate of 200 ml·min^−1. The relative humidity was measured by a calibrated Rotronic probe (dynamic range of 1.0-100% RH), located near the sample. The weight change, (mass relaxation) of the sample as a function of % RH (relative humidity) was constantly monitored by the microbalance (accuracy±0.005 mg).
5 to 20 mg of sample was placed in a tared mesh stainless steel basket under ambient conditions. The sample was loaded and unloaded at 40% RH and 25° C. (typical room conditions). A moisture sorption isotherm was performed as outlined below (2 scans giving 1 complete cycle). The standard isotherm was performed at 25° C. at 10% RH intervals over a 0.5-90% RH range. Data analysis was undertaken in Microsoft Excel using DVS Analysis Suite v6.0.0.7. Method Parameters for SMS DVS Intrinsic Experiments are as follows:
The sample was recovered after completion of the isotherm and re-analyzed by XRPD.
as §1, with “SMS Analysis Suite software.” for “DVS Intrinsic Control software v 1.0.0.30.”, “RH” for “RH (relative humidity)”
Typically 5-20 mg of sample was placed in a tared mesh stainless steel basket under ambient conditions. The sample was loaded and unloaded at 40% RH and 25° C. (typical room conditions). A moisture sorption isotherm was performed as outlined below (2 scans giving 1 complete cycle). […]

[4] = Log P determination by potentiometric titration (octanol/ISA water); type: physicochemical; details: potentiometry
Procedure: Data were collected by potentiometric titration on a Sirius GlpKa instrument using three ratios of octanol: ionic-strength adjusted (ISA) water to generate Log P, Log Pion, and Log D values. The data were refined using Refinement Pro software v1.0. Prediction of Log P values was made using ACD v9 and Syracuse KOWWIN v1.67 software.
Log P was predicted using ACD software then measured by potentiometry. Three titrations were performed at three different octanol/ISA water ratios, giving the difference curve plotted in FIG. 30. The black curve is the pure aqueous pKa titration and the 3 colored curves correspond to the three octanol/ISA water ratios. The shifts in pKa enable determination of Log P.
Log D is the distribution coefficient, representing the combined lipophilicity of all species present at a specific pH. Log P is a compound constant, which corresponds to the partition coefficient of the pure neutral species, while Log Pion is that of the pure ionized species. Log P and Log Pion can be determined from the lipophilicity curve, as the intersection of the Y axis with respectively the tangent at the start of the pH scale (when the molecule is purely in its neutral form) and the tangent at the end of the pH scale (when the molecule is completely ionized).

[5] = pKa determination by potentiometry (methanol/water, Yasuda-Shedlovsky extrapolation); type: physicochemical; details: 25° C., potentiometry with methanol as cosolvent, extrapolated to 0% co-solvent (Yasuda-Shedlovsky)
Procedure: pKa determination data were collected on a Sirius GlpKa instrument with a D-PAS attachment. Measurements were made at 25° C. in aqueous solution by UV and in methanol water mixtures by potentiometry. The titration media was ionic-strength adjusted (ISA) with 0.15 M KCl (aq). The values found in the methanol water mixtures were corrected to 0% co-solvent via a Yasuda-Shedlovsky extrapolation. The data were refined using Refinement Pro software v1.0. Prediction of pKa values was made using ACD pKa prediction software v9.
The pKa of obeticholic acid was measured by potentiometry using methanol as a cosolvent (FIG. 27) and extrapolated to 0% co-solvent using a Yasuda-Shedlovsky extrapolation (FIG. 28). The pKa enables determination of the proportion of the neutral and the ionized form of the compound at a given pH.

Plasma concentration of tauro conjugate, crystalline form compared with Form 1 [1] | Plasma obeticholic acid concentration after 3 hours relative to Cmax [1] | Time after which Cmax is achieved ([1]; pH 4) | Water solubility [2] | Cmax, Form 1 compared with Form F [1] | Time of early plasma concentration peak [1] | Time of second plasma concentration peak [1] | GVS water uptake / weight change ([3]; 25° C., 0 to 90% RH) | Hygroscopicity (GVS) ([3]; 25° C., 0 to 90% RH, in words) | XRPD analysis after GVS ([3]; sample recovered after isotherm) | Measured LogD7.4 ([4]; octanol/ISA water, pH 7.4) | Measured LogPion ([4]; octanol/ISA water, pure ionized species) | Measured LogP ([4]; three octanol/ISA water ratios) | Measured pKa [5] | Molecule
higher concentration | almost half of the Cmax | 1.5 h | 9.1 µM |  |  |  |  |  |  |  |  |  |  | CC[C@H]1[C@@H](O)[C@@H]2[C@H](CC[C@]3(C)[C@@H]([C@H](C)CCC(=O)O)CC[C@@H]23)[C@@]2(C)CC[C@@H](O)C[C@@H]12 [Form F, obeticholic acid]
 |  |  |  | lower | 30 min | 2 h | 3.8% | moderately hygroscopic | still non-crystalline | 2.98 | 1.58 | 5.54 | 4.82 | obeticholic acid [Form 1]
